Results taken from patent publication US4226863A, “7-Methoxy cephalosporins” (Sumitomo Chemical Company, Limited, priority 1975, dated 1980).
In brackets after ≈: the same amount, converted by molar mass.

How the values were obtained:
Type in all cases: cell-based
[1] = tested on: Serratia No. 115; test: antimicrobial activity, minimum inhibitory concentration, Serratia No. 115
Protocol: (§1) The antimicrobial activities of the compounds prepared in the previous Examples were determined in a usual manner and the minimum inhibitory concentrations (in terms of μg/ml) are set forth in the Table below.

[2] = tested on: Enterobacter aerogenes No. 101; test: antimicrobial activity, minimum inhibitory concentration, Enterobacter aerogenes No. 101; details: Klebsiella aerogenes
Protocol: as §1

[3] = tested on: Pseudomonas aeruginosa IID 5142; test: antimicrobial activity, minimum inhibitory concentration, Pseudomonas aeruginosa IID 5142; details: IID5142
Protocol: as §1

[4] = tested on: Escherichia coli NIHJ; test: antimicrobial activity, minimum inhibitory concentration, Escherichia coli NIHJ
[5] = tested on: Proteus vulgaris HX 19; test: antimicrobial activity, minimum inhibitory concentration, Proteus vulgaris HX 19; details: HX19
Protocol: as §1

Compound	MIC [1] [µg/mL]	MIC [2] [µg/mL]	MIC [3] [µg/mL]	MIC [4] [µg/mL]	MIC [5] [µg/mL]
CO[C@@]1(NC(=O)C(NC(=O)c2cnccc2O)c2ccccc2)C(=O)N2C(C(=O)[O-])=C(C[n+]3ccccc3)CS[C@@H]21 (stereo partly drawn) [Example 16]	50 (≈ 86.9 µM)	25 (≈ 43.4 µM)	6.25 (≈ 10.9 µM)	12.5 (≈ 21.7 µM)	1.56 (≈ 2.71 µM)
CO[C@@]1(NC(=O)C(NC(=O)c2cnc3nc(SC)ncc3c2O)c2ccc(O)cc2)C(=O)N2C(C(=O)O)=C(COC(N)=O)CS[C@@H]21 (stereo partly drawn) [Example 18]	50 (≈ 74.4 µM)	12.5 (≈ 18.6 µM)	6.25 (≈ 9.31 µM)	12.5 (≈ 18.6 µM)	0.78 (≈ 1.16 µM)
CO[C@@]1(NC(=O)C(NC(=O)c2cnc3ccc(SC)nc3c2O)c2ccc(O)c(Cl)c2)C(=O)N2C(C(=O)O)=C(CSc3nnc(CO)s3)CS[C@@H]21 (stereo partly drawn) [Example 20]	6.25 (≈ 7.89 µM)	6.25 (≈ 7.89 µM)	3.13 (≈ 3.95 µM)	3.13 (≈ 3.95 µM)	0.39 (≈ 0.492 µM)
CNc1nnc(SCC2=C(C(=O)O)N3C(=O)[C@](NC(=O)C(NC(=O)c4cnc5ccc(OC)nc5c4O)c4ccc(O)c(Cl)c4)(OC)[C@H]3SC2)s1 (stereo partly drawn) [Example 21]	12.5 (≈ 16.1 µM)	6.25 (≈ 8.06 µM)	3.13 (≈ 4.04 µM)	1.56 (≈ 2.01 µM)	0.39 (≈ 0.503 µM)
CO[C@@]1(NC(=O)C(NC(=O)c2ncccc2O)c2ccccc2)C(=O)N2C(C(=O)[O-])=C(C[n+]3ccc(C(N)=O)cc3)CS[C@@H]21 (stereo partly drawn) [Example 24]	50 (≈ 80.8 µM)	25 (≈ 40.4 µM)	12.5 (≈ 20.2 µM)	12.5 (≈ 20.2 µM)	0.78 (≈ 1.26 µM)
CO[C@@]1(NC(=O)C(NC(=O)c2cnc3nc(N4CCNCC4)ncc3c2O)c2ccc(O)cc2)C(=O)N2C(C(=O)O)=C(COC(N)=O)CS[C@@H]21 (stereo partly drawn) [Example 25]	50 (≈ 70.5 µM)	25 (≈ 35.2 µM)	6.25 (≈ 8.81 µM)	12.5 (≈ 17.6 µM)	0.78 (≈ 1.1 µM)
CO[C@@]1(NC(=O)C(NC(=O)c2cnc3nc(N4CCCC4)cnc3c2O)c2ccc(O)cc2)C(=O)N2C(C(=O)O)=C(CSc3n[nH]c(=S)s3)CS[C@@H]21 (stereo partly drawn) [Example 26]	12.5 (≈ 15.9 µM)	12.5 (≈ 15.9 µM)	6.25 (≈ 7.97 µM)	6.25 (≈ 7.97 µM)	0.39 (≈ 0.498 µM)
COC1(NC(=O)C(NC(=O)c2cnc3scnc3c2O)c2ccc(O)cc2)C(=O)N2C(C(=O)O)=C(COC(N)=O)CSC21 (stereo not drawn) [Example 30]	12.5 (≈ 19.8 µM)	12.5 (≈ 19.8 µM)	6.25 (≈ 9.91 µM)	6.25 (≈ 9.91 µM)	0.39 (≈ 0.618 µM)

Further lines, results first:

MIC [1] [µg/mL]	MIC [2] [µg/mL]	MIC [3] [µg/mL]	MIC [4] [µg/mL]	MIC [5] [µg/mL]	Compound
100 (≈ 155 µM)	25 (≈ 38.7 µM)	25 (≈ 38.7 µM)	12.5 (≈ 19.4 µM)	0.78 (≈ 1.21 µM)	CO[C@@]1(NC(=O)C(NC(=O)c2ccnnc2O)c2ccc(O)cc2)C(=O)N2C(C(=O)O)=C(CSc3nnc(C)s3)CS[C@@H]21 (stereo partly drawn) [Example 13]
100 (≈ 151 µM)	25 (≈ 37.7 µM)	25 (≈ 37.7 µM)	12.5 (≈ 18.8 µM)	1.56 (≈ 2.35 µM)	CO[C@@]1(NC(=O)C(NC(=O)c2ccnnc2O)c2ccc(O)cc2)C(=O)N2C(C(=O)O)=C(CSc3n[nH]c(=S)s3)CS[C@@H]21 (stereo partly drawn) [Example 14]
100 (≈ 157 µM)	50 (≈ 78.4 µM)	12.5 (≈ 19.6 µM)	12.5 (≈ 19.6 µM)	1.56 (≈ 2.45 µM)	CO[C@@]1(NC(=O)C(NC(=O)c2cnc3nc(C)ccc3c2O)c2ccc(O)cc2)C(=O)N2C(C(=O)O)=C(COC(C)=O)CS[C@@H]21 (stereo partly drawn) [Example 15]
6.25 (≈ 8.79 µM)	6.25 (≈ 8.79 µM)	3.13 (≈ 4.4 µM)	3.13 (≈ 4.4 µM)	0.2 (≈ 0.281 µM)	COc1cnc2c(O)c(C(=O)NC(C(=O)N[C@]3(OC)C(=O)N4C(C(=O)O)=C(CSc5nnnn5C)CS[C@@H]43)c3ccc(O)cc3)cnc2n1 (stereo partly drawn) [Example 17]
25 (≈ 33.8 µM)	12.5 (≈ 16.9 µM)	3.13 (≈ 4.24 µM)	6.25 (≈ 8.46 µM)	0.78 (≈ 1.06 µM)	CO[C@@]1(NC(=O)C(NC(=O)c2cnc3nc(SC)ncc3c2O)c2ccc(O)cc2)C(=O)N2C(C(=O)O)=C(CSc3ccc(O)nn3)CS[C@@H]21 (stereo partly drawn) [Example 19]
25 (≈ 34 µM)	6.25 (≈ 8.49 µM)	3.13 (≈ 4.25 µM)	3.13 (≈ 4.25 µM)	0.39 (≈ 0.53 µM)	CCN(CC)c1ccc2ncc(C(=O)NC(C(=O)N[C@]3(OC)C(=O)N4C(C(=O)O)=C(CSc5cnn[nH]5)CS[C@@H]43)c3ccc(O)cc3)c(O)c2n1 (stereo partly drawn) [Example 22]
100 (≈ 174 µM)	50 (≈ 87.2 µM)	12.5 (≈ 21.8 µM)	12.5 (≈ 21.8 µM)	0.78 (≈ 1.36 µM)	CO[C@@]1(NC(=O)C(NC(=O)c2cccnc2O)c2ccc(O)cc2)C(=O)N2C(C(=O)O)=C(COC(N)=O)CS[C@@H]21 (stereo partly drawn) [Example 23]
50 (≈ 77.4 µM)	50 (≈ 77.4 µM)	25 (≈ 38.7 µM)	25 (≈ 38.7 µM)	1.56 (≈ 2.42 µM)	CO[C@@]1(NC(=O)C(NC(=O)c2nccnc2O)c2ccc(O)cc2)C(=O)N2C(C(=O)O)=C(CSc3nnc(C)s3)CS[C@@H]21 (stereo partly drawn) [Example 27]
6.25 (≈ 9.2 µM)	6.25 (≈ 9.2 µM)	3.13 (≈ 4.6 µM)	1.56 (≈ 2.3 µM)	0.39 (≈ 0.574 µM)	COC1(NC(=O)C(NC(=O)c2cc3ncccc3nc2O)c2ccc(O)cc2)C(=O)N2C(C(=O)O)=C(CSc3nnnn3C)CSC21 (stereo not drawn) [Example 28]
12.5 (≈ 18.3 µM)	12.5 (≈ 18.3 µM)	6.25 (≈ 9.13 µM)	12.5 (≈ 18.3 µM)	0.78 (≈ 1.14 µM)	COC1(NC(=O)C(NC(=O)c2cnc3sccc3c2O)c2ccc(O)cc2)C(=O)N2C(C(=O)O)=C(CSc3nnnn3C)CSC21 (stereo not drawn) [Example 29]
